The text below walks through data of paper PMC6486649 (Analytica chimica acta, 2019).

The subject of data set [1] is hCMEC/D3 cells. The format is in vitro ADME, human. The note with it: either individually or in combination, p<0.05, two-way ANOVA.
For data set [2] the following is noted: cited from earlier work.

The LogP is a log measure of how a compound divides between an organic and an aqueous phase.

Turning to `C[C@@H]1CCO[C@H]2Cn3cc(C(=O)NCc4ccc(F)cc4F)c(=O)c(O)c3C(=O)N12` [Dolutegravir], the “Intracellular accumulation compared with tenofovir or emtricitabine” value in data set [1] is given as “significantly higher”. Also, in data set [2], the LogP is 1.10.
